The subject of one data set is 518A2. Kind of data set: Cytotoxicity against human 518A2 cells assessed as inhibition of cell growth by MTT assay. It is filed as functional, cell-based. (Formazan colour is commonly taken as a measure of viable cells.)
For another data set, the system named is HCT-116. Kind of data set: Cytotoxicity against human HCT-116 cells assessed as inhibition of cell growth by MTT assay. It is filed as functional, cell-based.
The next data set deals with PANC-1. Kind of data set: Cytotoxicity against human PANC-1 cells assessed as inhibition of cell growth by MTT assay. The class given is functional, cell-based.
The test system of a further data set is HT-29. Kind of data set: Cytotoxicity against human HT-29 cells assessed as inhibition of cell growth by MTT assay. The class given is functional, cell-based.
Data set [1] is described as follows: Cytotoxicity against human MCF7/Topo cells assessed as inhibition of cell growth by MTT assay. The class given is functional, cell-based.
The next data set relates to KB-V1. Kind of data set: Cytotoxicity against human vinblastine resistant KB-V1 cells assessed as inhibition of cell growth by MTT assay. The class given is functional, cell-based.
The nature of data set [2]: Cytotoxicity against chicken heart fibroblast cells. The class given is toxicity, cell-based, Gallus gallus.
Data set [3] concerns PC-3. Kind of data set: Cytotoxicity against human PC-3 cells assessed as inhibition of cell growth by MTT assay. It is filed as functional, cell-based.
Data set [4] concerns SW-620. Kind of data set: Cytotoxicity against human SW620 cells assessed as inhibition of cell growth by MTT assay. It is filed as functional, cell-based.
The test system of a further data set is ASPC1. Kind of data set: Cytotoxicity against human ASPC1 cells assessed as inhibition of cell growth by MTT assay. It is filed as functional, cell-based.
Another data set has as its system A549. Kind of data set: Cytotoxicity against human A549 cells assessed as inhibition of cell growth by MTT assay. The class given is functional, cell-based.
For the next data set, the system named is K562. Kind of data set: Cytotoxicity against human K562 cells assessed as inhibition of cell growth by MTT assay. The class given is functional, cell-based.
Another data set concerns MDA-MB-231. Kind of data set: Cytotoxicity against human MDA-MB-231 cells assessed as inhibition of cell growth by MTT assay. It is filed as functional, cell-based.
The target in the next data set is Histone deacetylase. Kind of data set: Inhibition of HDAC (unknown origin). It is filed as protein assay, Homo sapiens.
A further data set concerns RPMI-8226. Kind of data set: Cytotoxicity against human RPMI-8226 cells assessed as inhibition of cell growth by MTS assay. The class given is functional, cell-based.
Data set [5] has as its system MCF7. Kind of data set: Cytotoxicity against human MCF7 cells assessed as inhibition of cell growth by MTT assay. It is filed as functional, cell-based.
Data set [6] deals with HepG2. Kind of data set: Cytotoxicity against human HepG2 cells assessed as inhibition of cell growth by MTT assay. The class given is functional, cell-based.
A further data set addresses Histone deacetylase 2 (Homo sapiens, UniProt Q92769). Kind of data set: Inhibition of HDAC2 (unknown origin).
The subject of data set [7] is MCF7. Kind of data set: Cytotoxicity against human MCF7 cells assessed as inhibition of cell growth by SRB assay. It is filed as functional, cell-based. (In general: The SRB assay estimates cell density from bound dye.)
For data set [8], the system named is SW-620. Kind of data set: Potency index, ratio of vorinostat IC50 to test compound IC50 for cytotoxicity against human SW620 cells assessed as inhibition of cell growth by MTT assay. The class given is functional.
Data set [9] deals with PC-3. Kind of data set: Potency index, ratio of vorinostat IC50 to test compound IC50 for cytotoxicity against human PC-3 cells assessed as inhibition of cell growth by MTT assay. It is filed as functional.
The test system of data set [10] is NCI-H23. Kind of data set: Cytotoxicity against human NCI-H23 cells assessed as inhibition of cell growth by MTT assay. The class given is functional, cell-based.
Data set [11] relates to NCI-H23. Kind of data set: Potency index, ratio of vorinostat IC50 to test compound IC50 for cytotoxicity against human NCI-H23 cells assessed as inhibition of cell growth by MTT assay. The class given is functional.
In the next data set the test system is HL-60. Kind of data set: Antiproliferative activity against human HL-60 cells assessed as inhibition of cell growth by MTT assay. It is filed as functional, cell-based.
The test system of data set [12] is MCF7. Kind of data set: cells. It is filed as functional, cell-based. The note with it: Homo sapiens, MCF7, 72 h.
Description: Cytotoxicity against human MCF7 cells assessed as inhibition of cell growth measured after 72 hrs by MTT assay
A further data set has as its system U2OS. Kind of data set: cells. The note with it: Homo sapiens, 72 h. It is filed as functional, cell-based.
For data set [13], the system named is HepG2. Kind of data set: Cytotoxicity against human HepG2 cells assessed as inhibition of cell growth measured after 72 hrs by MTT assay. It is filed as functional, cell-based. The note with it: HepG2, 72 h.

Converted amounts (≈) assume the structure as drawn. Counter-ions that a name gives are not always drawn.

Chain of Histone deacetylase 2 (Q92769 whole entry): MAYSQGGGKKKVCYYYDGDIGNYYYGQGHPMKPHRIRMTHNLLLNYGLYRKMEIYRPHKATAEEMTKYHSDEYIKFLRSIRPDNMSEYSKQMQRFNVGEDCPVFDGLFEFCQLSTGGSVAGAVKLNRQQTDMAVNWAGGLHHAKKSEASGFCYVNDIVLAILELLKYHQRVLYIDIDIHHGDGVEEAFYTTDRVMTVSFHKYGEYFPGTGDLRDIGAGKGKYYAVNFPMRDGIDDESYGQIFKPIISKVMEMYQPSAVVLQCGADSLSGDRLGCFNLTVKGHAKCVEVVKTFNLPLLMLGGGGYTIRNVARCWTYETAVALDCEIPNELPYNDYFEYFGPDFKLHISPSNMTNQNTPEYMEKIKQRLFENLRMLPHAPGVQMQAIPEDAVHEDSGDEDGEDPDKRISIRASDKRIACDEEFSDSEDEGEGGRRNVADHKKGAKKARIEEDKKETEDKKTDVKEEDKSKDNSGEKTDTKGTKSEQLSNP
Description for U2OS: Cytotoxicity against human U2OS cells assessed as inhibition of cell growth measured after 72 hrs by MTT assay

Take `CCn1cnc(-c2ccc(OC)cc2)c1-c1ccc(/C=C/C(=O)NO)cc1`: the IC50 (in the data set with 518A2; in the data set on HCT-116; with PANC-1; in the data set with HT-29; in data set [1]; in the data set with KB-V1) was 300 nM each time. For the same compound, the half-maximal inhibitory concentration (IC50) (commonly the concentration needed to halve the response being measured) in data set [2] was more than 150000 nM.

With `O=C(/C=C/c1ccc(CN2C(=O)C3(OCCO3)c3ccccc32)cc1)NO`, the IC50 in the data set on PC-3 [3], in the data set with SW-620 [4] and with ASPC1 was more than 3050 nM throughout.

Consider `CC(C)c1ccc(C(C)c2nnc(NC(=O)CCC(=O)NO)s2)cc1` (stereo unspecified), for which the IC50 in the data set on A549 turned out to be 14700 nM; in the data set on K562, 14700 nM; in the data set on PC-3 [3], 14700 nM; with MDA-MB-231 it was 14700 nM; at Histone deacetylase, 200 nM.

For the compound `CCCCCSc1ncc(C(=O)NO)c(N(Cc2ccccc2)S(=O)(=O)c2ccc(F)cc2)n1`, the IC50 in the data set on RPMI-8226 is more than 5600 nM.

Take `O=C(COc1ccc(C(=O)/C=C/c2ccccc2)cc1)NO`: the 50% inhibitory concentration (IC50) with MCF7 [5], in the data set with HepG2 [6] and with HCT-116 was 620 nM throughout.

For the compound `CCCCCSc1ncc(C(=O)NO)c(N(Cc2ccccc2)S(=O)(=O)c2cccc(OC)c2)n1`, the IC50 with RPMI-8226 is more than 5600 nM.

Regarding `O=C(CCC(=O)Nc1nnc(-c2ccc(Cl)cc2)s1)NO`, the IC50 in the data set on A549 came to 14700 nM; in the data set on K562 it was 14700 nM; with PC-3 [3], 14700 nM; in the data set on MDA-MB-231, 14700 nM; against Histone deacetylase it was 200 nM.

At Histone deacetylase 2, `O=C(CCCn1cc(CN2C(=O)/C(=N\O)c3cc(Br)ccc32)nn1)NO` came in with an IC50 of 910 nM.

With `COc1cc(/C=C2\N=C(c3ccccc3)N(n3c(SCC(=O)NO)nnc3-c3ccccc3)C2=O)ccc1O`, the concentration for 50% growth inhibition (GI50) – broadly, the concentration that inhibits growth by half – with MCF7 [7] is 24900 nM. This compound registered an IC50 at Histone deacetylase of 90 nM.

As for `COc1cccc2c1C(=O)c1c(O)c3c(c(O)c1C2=O)C[C@@](O)(C(=O)CO)C[C@@H]3O[C@H]1C[C@H](N)[C@H](O)[C@H](C)O1` [DOXORUBICIN HYDROCHLORIDE], in the data set with MCF7 [7], the GI50 amounted to 50200 nM.

Consider `Cn1cnc(-c2ccc(F)cc2)c1-c1ccc(/C=C/C(=O)NO)cc1`, for which the IC50 (in the data set with 518A2; with HCT-116; in the data set on PANC-1; in the data set on HT-29; in data set [1]; in the data set on KB-V1) was 300 nM in each case. The compound also had an IC50 in [2] of more than 150000 nM.

With `Cc1nc2ccc(Cl)cc2c(=O)n1Cc1ccc(C(=O)NO)cc1`, the IC50 was found to be 620 nM in the data set on PC-3 [3], 760 nM at Histone deacetylase, 620 nM in the data set on SW-620 [4] and 620 nM with NCI-H23 [10]. For the same compound, the “Ratio IC50” value with SW-620 [8], in the data set on PC-3 [9] and in the data set with NCI-H23 [11] was more than 3 in each case.

Consider `O=C(CCCCCCN1C(=O)C2(OCCO2)c2cccc(Cl)c21)NO`, for which the IC50 came out at 50 nM in the data set on PC-3 [3], 30 nM against Histone deacetylase 2, 50 nM with SW-620 [4] and 50 nM in the data set with ASPC1.

On to `CCCCCSc1ncc(C(=O)NO)c(N(Cc2ccccc2)S(=O)(=O)c2ccc(OC)cc2)n1`, for which, in the data set on RPMI-8226, the half-maximal inhibitory concentration (IC50) is more than 7800 nM.

For `C[C@H]1[C@@H](NC(=O)CCCC(=O)NO)O[C@@H]2O[C@@]3(C)CC[C@H]4[C@H](C)CC[C@@H]1[C@@]24OO3`, the IC50 with MCF7 [5] was 1.28 µg/mL; in the data set on HepG2 [6], 1.28 µg/mL; in the data set with HL-60 it was 1.28 µg/mL (≈ 3.1 µM).

For `Cc1ccc(-c2nnc(NC(=O)CCCCCCC(=O)NO)s2)s1`, the IC50 in the data set with MCF7 [5], in the data set with PC-3 [3], in the data set on SW-620 [4] and in the data set on ASPC1 was 880 nM in each case.

As for `O=C(CCCCCCCn1cnc2c(c1=O)C1CCCCC1S2)NO` (stereo unspecified), the IC50 in the data set on MCF7 [5], with HepG2 [6] and in the data set on HCT-116 was 3320 nM in each case.

`COc1cc(NC(C)CCCNC(=O)CCC(=O)NO)c2ncccc2c1` (stereo unspecified): the IC50 in the data set on MCF7 [12], in the data set with U2OS and with HepG2 [13] was 1600 nM throughout.

Regarding `O=C(CCC(=O)Nc1nnc(-c2ccc(O)cc2)s1)NO`, the concentration for half-maximal inhibition (IC50) amounted to 14700 nM with A549; 14700 nM in the data set with K562; 14700 nM in the data set with PC-3 [3]; 14700 nM in the data set on MDA-MB-231; 200 nM at Histone deacetylase.

The values above are taken from ChEMBL document CHEMBL5230103, “Hydroxamic acid hybrids as the potential anticancer agents: An Overview” (Eur J Med Chem, 2020).
